From patent US20040043498A1, “Reagent for determining singlet oxygen” (priority 2003, published 2004)

Assay: Light stability of DMAX-EP (photobleaching under continuous excitation light)
Format: physicochemical
Details: 0.1 M phosphate buffer pH 7.4, 0.1% DMSO, 37° C.
Experimental: 5.0 μM aqueous solutions of DMAX-EP (endoperoxide of Compound 11 in the above scheme) and DPAX-1-EP (endoperoxide of Compound 13 described in International Patent Publication WO99/51586, Example 1) [0.1 M phosphate buffer (pH 7.4) containing 0.1% DMSO as a cosolvent] were each placed in a fluorescent cell and exposed to an excitation light of 491 nm at 37° C. with stirring, and fluorescence was measured at 620 nm by using a fluorometer while the solution was continuously exposed to the excitation light.

Photobleaching relative to DPAX-1-EP (5.0 μM aqueous solution, excitation 491 nm, fluorescence at 620 nm): 5.4 times slower
Light stability (5.0 μM, continuous 491 nm excitation): excellent light stability
Substance: DMAX-EP
